The assay has as its target T1, β-secretase (BACE-1) (Homo sapiens, UniProt P56817).
T1 construct: gene BACE1
As to the kind of experiment: BACE-1 FRET enzymatic assay. The format is biochemical.

T1 sequence (P56817 46-457): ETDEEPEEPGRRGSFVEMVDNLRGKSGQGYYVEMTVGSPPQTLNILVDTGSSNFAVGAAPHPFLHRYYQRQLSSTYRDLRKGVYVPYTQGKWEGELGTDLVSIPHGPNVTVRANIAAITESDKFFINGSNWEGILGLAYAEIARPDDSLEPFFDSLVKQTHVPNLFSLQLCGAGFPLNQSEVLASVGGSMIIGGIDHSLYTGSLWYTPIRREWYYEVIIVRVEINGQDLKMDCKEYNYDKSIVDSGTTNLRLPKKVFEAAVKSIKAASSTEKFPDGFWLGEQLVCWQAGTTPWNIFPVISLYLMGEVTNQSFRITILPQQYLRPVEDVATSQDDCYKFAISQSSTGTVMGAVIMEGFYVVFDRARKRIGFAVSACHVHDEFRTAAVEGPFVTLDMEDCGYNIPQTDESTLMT

What is called IC50 is the concentration needed to halve the response being measured. A higher IC50 goes with lower potency. As for `N[C@@H](CCCCNC(=O)OCc1ccccc1)C(=O)OCc1ccccc1` [compound 1, S450588], the concentration for half-maximal inhibition (IC50) came out at 51.6 µM.

In turn, `O=C(NCc1ccccc1)[C@@H](O)[C@H](O)C(=O)NCc1ccccc1` [compound 2, 276065] showed an IC50 of 85.3 µM.

The record behind these values is article PMC3372491, “Application of Consensus Scoring and Principal Component Analysis for Virtual Screening against β-Secretase (BACE-1)” (PLoS ONE, 2012).
